Results published in patent US12077503B2, “Substituted cyclic amides and their use as herbicides” (FMC CORPORATION, priority 2015, dated 2024).

Key:
Assay type in all cases: in vivo
[1] = tested on: barnyardgrass (Echinochloa crus-galli); assay: Test A postemergence; details: Echinochloa crus-galli, post-emergence, 240 h, 125 g ai/ha, postemergence, visual injury rating after approximately 10 d; read-out: Barnyardgrass plant response rating (0 to 100 scale, 0 no effect, 100 complete control)
Outline: (§1)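 Seeded soil received test chemicals as a preemergence directed spray, and seedlings at one to two leaves, 2–10 cm tall, received them postemergence, in a non-phytotoxic, surfactant-containing solvent mixture. Pots were held in a greenhouse for approximately 10 d, then rated for injury from 0, no effect, to 100, complete control.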

[2] = tested on: blackgrass (Alopecurus myosuroides); assay: Test A postemergence; details: Alopecurus myosuroides, post-emergence, 240 h, 125 g ai/ha, postemergence, visual injury rating after approximately 10 d; read-out: Blackgrass plant response rating (0 to 100 scale, 0 no effect, 100 complete control)
Outline: as §1

[3] = tested on: pigweed (Amaranthus retroflexus); assay: Test A postemergence; details: Amaranthus retroflexus, post-emergence, 240 h, 125 g ai/ha, postemergence, visual injury rating after approximately 10 d; read-out: Pigweed plant response rating (0 to 100 scale, 0 no effect, 100 complete control)
Outline: as §1

[4] = tested on: Kochia (Kochia scoparia); assay: Test A postemergence; details: Bassia scoparia, post-emergence, 240 h, 125 g ai/ha, postemergence, visual injury rating after approximately 10 d; read-out: Kochia plant response rating (0 to 100 scale, 0 no effect, 100 complete control)
Outline: as §1

[5] = tested on: barnyardgrass (Echinochloa crus-galli); assay: Test B flooded paddy test; details: Echinochloa crus-galli, Flood, 250 g ai/ha; scale of 0 to 100 where 0 is no effect and 100 is complete control; read-out: Barnyardgrass plant response rating
Outline: (§2)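 Greenhouse paddy pots with 2-leaf stage plants received compound by direct addition to floodwater 3 cm deep, kept at that level. Scored visually at 13–15 d versus controls (0 no effect; 100 complete control).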

[6] = tested on: ducksalad (Heteranthera limosa); assay: Test B flooded paddy test; details: Heteranthera limosa, Flood, 250 g ai/ha; scale of 0 to 100 where 0 is no effect and 100 is complete control; read-out: Ducksalad plant response rating
Outline: as §2

[7] = tested on: rice (Oryra sativa); assay: Test B flooded paddy test; details: Oryza sativa, Flood, 250 g ai/ha; scale of 0 to 100 where 0 is no effect and 100 is complete control; read-out: Rice plant response rating
Outline: as §2

[8] = tested on: sedge, umbrella (small-flower umbrella sedge, Cyperus difformis); assay: Test B flooded paddy test; details: Cyperus difformis, Flood, 250 g ai/ha; scale of 0 to 100 where 0 is no effect and 100 is complete control; read-out: Sedge, Umbrella plant response rating
Outline: as §2

[9] = tested on: barnyardgrass (Echinochloa crus-galli); assay: Test A preemergence; details: Echinochloa crus-galli, pre-emergence, 240 h; for pest or weed control at 125 g/ha: 125 g ai/ha, preemergence, 0 to 100 scale where 0 is no effect and 100 is complete control, read-out: Barnyardgrass plant response rating; for pest or weed control at 500 g/ha: 500 g ai/ha, Preemergence, visual injury vs untreated controls after approximately 10 d, read-out: Barnyardgrass plant response rating (0 to 100 scale where 0 is no effect and 100 is complete control)
Outline: as §1

[10] = tested on: ryegrass, Italian (Italian ryegrass, Lolium multiflorum); assay: Test A preemergence; details: Lolium multiflorum, pre-emergence, 240 h; for pest or weed control at 125 g/ha: 125 g ai/ha, preemergence, 0 to 100 scale where 0 is no effect and 100 is complete control, read-out: Ryegrass, Italian plant response rating; for pest or weed control at 500 g/ha: 500 g ai/ha, Preemergence, visual injury vs untreated controls after approximately 10 d, read-out: Ryegrass, Italian plant response rating (0 to 100 scale where 0 is no effect and 100 is complete control)
Outline: as §1

[11] = tested on: giant foxtail (Setaria faberii); assay: Test A preemergence; details: Setaria faberi, pre-emergence, 240 h; for pest or weed control at 125 g/ha: 125 g ai/ha, preemergence, 0 to 100 scale where 0 is no effect and 100 is complete control, read-out: Foxtail, Giant plant response rating; for pest or weed control at 500 g/ha: 500 g ai/ha, Preemergence, visual injury vs untreated controls after approximately 10 d, read-out: Foxtail, Giant plant response rating (0 to 100 scale where 0 is no effect and 100 is complete control)
Outline: as §1

[12] = tested on: pigweed (Amaranthus retroflexus); assay: Test A preemergence; details: Amaranthus retroflexus, pre-emergence, 240 h; for pest or weed control at 125 g/ha: 125 g ai/ha, preemergence, 0 to 100 scale where 0 is no effect and 100 is complete control, read-out: Pigweed plant response rating; for pest or weed control at 500 g/ha: 500 g ai/ha, Preemergence, visual injury vs untreated controls after approximately 10 d, read-out: Pigweed plant response rating (0 to 100 scale where 0 is no effect and 100 is complete control)
[13] = tested on: ragweed (common ragweed, Ambrosia elatior); assay: Test A preemergence; details: Ambrosia artemisiifolia, pre-emergence, 240 h; for pest or weed control at 125 g/ha: 125 g ai/ha, preemergence, 0 to 100 scale where 0 is no effect and 100 is complete control, read-out: Ragweed plant response rating; for pest or weed control at 500 g/ha: 500 g ai/ha, Preemergence, visual injury vs untreated controls after approximately 10 d, read-out: Ragweed plant response rating (0 to 100 scale where 0 is no effect and 100 is complete control)
Outline: as §1

[14] = tested on: Kochia (Kochia scoparia); assay: Test A preemergence; details: Bassia scoparia, pre-emergence, 240 h; for pest or weed control at 125 g/ha: 125 g ai/ha, preemergence, 0 to 100 scale where 0 is no effect and 100 is complete control, read-out: Kochia plant response rating; for pest or weed control at 500 g/ha: 500 g ai/ha, Preemergence, visual injury vs untreated controls after approximately 10 d, read-out: Kochia plant response rating (0 to 100 scale where 0 is no effect and 100 is complete control)
Outline: as §1

Row | Structure (SMILES) | pest or weed control at 125 g/ha [1] | pest or weed control at 125 g/ha [2] | pest or weed control at 125 g/ha [3] | pest or weed control at 125 g/ha [4] | pest or weed control at 250 g/ha [5] | pest or weed control at 250 g/ha [6] | pest or weed control at 250 g/ha [7] | pest or weed control at 250 g/ha [8] | pest or weed control at 125 g/ha [9] | pest or weed control at 500 g/ha [9] | pest or weed control at 125 g/ha [10] | pest or weed control at 500 g/ha [10] | pest or weed control at 125 g/ha [11] | pest or weed control at 500 g/ha [11] | pest or weed control at 125 g/ha [12] | pest or weed control at 500 g/ha [12] | pest or weed control at 125 g/ha [13] | pest or weed control at 500 g/ha [13] | pest or weed control at 125 g/ha [14] | pest or weed control at 500 g/ha [14]
1 | CN1C[C@H](c2cccc(C3CC3)c2)[C@@H](C(=O)Nc2ccccc2S(C)(=O)=O)C1=O [Compound 817] | 90% | 40% | 0% | 0% | 60% | 90% | 0% | 0% | 90% | 90% | 20% | 40% | 90% | 90% | 0% | 80% | 20% | 50% | 50% | 70%
2 | CN1C[C@H](c2cccc(C3CC3)c2)[C@@H](C(=O)Nc2ccc(F)cc2F)C1=O [Compound 818] | 90% | 30% | 20% | 40% | 55% | 80% | 0% | 0% | 90% | 100% | 60% | 90% | 90% | 100% | 20% | 60% | 0% | 0% | 70% | 80%
3 | CC(C)c1cccc([C@H]2CN(C)C(=O)[C@@H]2C(=O)Nc2ccccc2F)c1 [Compound 819] | 100% | 60% | 30% | 30% | 65% | 100% | 0% | 0% | 90% | 100% | 80% | 100% | 100% | 100% | 30% | 30% | 0% | 20% | 70% | 100%
